Where two headings read alike, the source gives them in different places.
Columns and labels:
PI3K-alpha = PI3K-alpha (Homo sapiens, UniProt P42336); test: PI3K-alpha fluorescence polarization assay; format: biochemical; settings: read-out: PI3Kα Avg. IC50
PI3K-gamma = PI3K-gamma (Homo sapiens, UniProt P48736); test: PI3K-gamma fluorescence polarization assay; format: biochemical; settings: PI3Kγ Avg. IC50
Outline: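 Enzyme 5 ng; substrate diC8-PI(4,5)P2 2.5 μM; ATP 25 μM; 5 mM HEPES pH 7, 2.5 mM MgCl2; DMSO ≤2%; 1 h, 25° C. Quench 10 mM EDTA. Detect with GRP1 PH domain 100 nM + TMR-IP4 probe 5 nM by polarization.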

human TOR = biological target: T1, human TOR (Homo sapiens, UniProt P42345); test: mTOR enzyme assay (DELFIA, His6-S6K substrate); format: biochemical; settings: read-out: mTOR Kinase Avg. IC50
T1 construct: FLAG

[1] = test system: human tumor xenograft models; settings: cited from earlier work
[2] = test system: acute lymphoblastic leukemia; settings: in vivo; cited from earlier work
mTOR = mTOR (Homo sapiens, UniProt P42345); settings: mTOR enzymes; cited from earlier work

Chain of PI3K-alpha (P42336 whole entry, species assumed): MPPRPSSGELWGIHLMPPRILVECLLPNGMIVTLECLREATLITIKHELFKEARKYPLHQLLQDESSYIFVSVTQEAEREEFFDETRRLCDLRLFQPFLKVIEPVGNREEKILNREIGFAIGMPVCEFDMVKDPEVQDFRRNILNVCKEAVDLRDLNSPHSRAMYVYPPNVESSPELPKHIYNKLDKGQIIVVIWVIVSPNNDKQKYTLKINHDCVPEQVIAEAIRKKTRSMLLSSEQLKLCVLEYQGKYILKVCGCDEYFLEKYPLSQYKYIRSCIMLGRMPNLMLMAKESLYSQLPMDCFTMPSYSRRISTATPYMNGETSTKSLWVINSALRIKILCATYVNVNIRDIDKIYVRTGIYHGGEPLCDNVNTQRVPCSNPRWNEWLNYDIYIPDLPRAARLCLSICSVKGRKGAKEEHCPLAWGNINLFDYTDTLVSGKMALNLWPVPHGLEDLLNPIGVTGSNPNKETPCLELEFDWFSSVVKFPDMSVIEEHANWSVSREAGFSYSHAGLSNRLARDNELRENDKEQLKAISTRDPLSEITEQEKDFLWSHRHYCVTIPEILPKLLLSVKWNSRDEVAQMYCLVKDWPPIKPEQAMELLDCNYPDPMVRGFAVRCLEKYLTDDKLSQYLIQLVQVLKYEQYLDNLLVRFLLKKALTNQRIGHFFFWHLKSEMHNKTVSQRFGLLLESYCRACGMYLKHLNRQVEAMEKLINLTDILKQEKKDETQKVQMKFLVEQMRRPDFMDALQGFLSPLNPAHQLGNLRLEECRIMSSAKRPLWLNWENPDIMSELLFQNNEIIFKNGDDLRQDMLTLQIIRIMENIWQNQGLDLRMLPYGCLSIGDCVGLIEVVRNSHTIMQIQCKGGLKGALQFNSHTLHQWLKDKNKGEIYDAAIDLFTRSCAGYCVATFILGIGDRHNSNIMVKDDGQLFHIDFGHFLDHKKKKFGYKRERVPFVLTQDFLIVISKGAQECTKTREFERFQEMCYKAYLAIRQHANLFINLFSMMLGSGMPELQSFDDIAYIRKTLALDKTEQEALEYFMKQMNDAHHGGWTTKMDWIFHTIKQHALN
Chain of PI3K-alpha (P27986 whole entry partner, species assumed): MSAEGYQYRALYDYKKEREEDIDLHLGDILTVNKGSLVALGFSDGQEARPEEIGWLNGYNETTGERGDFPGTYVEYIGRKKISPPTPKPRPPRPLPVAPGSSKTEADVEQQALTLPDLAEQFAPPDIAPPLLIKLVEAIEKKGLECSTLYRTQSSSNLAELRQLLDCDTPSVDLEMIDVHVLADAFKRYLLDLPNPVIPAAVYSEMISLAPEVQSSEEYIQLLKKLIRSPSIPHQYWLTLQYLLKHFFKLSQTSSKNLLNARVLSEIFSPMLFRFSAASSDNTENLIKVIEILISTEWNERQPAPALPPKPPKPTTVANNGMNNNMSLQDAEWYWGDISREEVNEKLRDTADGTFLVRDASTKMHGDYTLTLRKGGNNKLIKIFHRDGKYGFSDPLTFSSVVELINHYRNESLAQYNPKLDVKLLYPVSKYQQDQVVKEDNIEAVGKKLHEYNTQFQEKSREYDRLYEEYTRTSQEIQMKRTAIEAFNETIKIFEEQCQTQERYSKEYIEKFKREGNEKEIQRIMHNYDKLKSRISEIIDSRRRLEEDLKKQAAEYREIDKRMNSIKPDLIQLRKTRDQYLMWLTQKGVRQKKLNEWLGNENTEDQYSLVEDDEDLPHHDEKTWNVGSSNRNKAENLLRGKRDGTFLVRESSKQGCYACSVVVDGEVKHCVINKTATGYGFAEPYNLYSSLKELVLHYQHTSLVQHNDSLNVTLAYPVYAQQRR
Chain of PI3K-gamma (P48736 whole entry, species assumed, the tested form may be a part): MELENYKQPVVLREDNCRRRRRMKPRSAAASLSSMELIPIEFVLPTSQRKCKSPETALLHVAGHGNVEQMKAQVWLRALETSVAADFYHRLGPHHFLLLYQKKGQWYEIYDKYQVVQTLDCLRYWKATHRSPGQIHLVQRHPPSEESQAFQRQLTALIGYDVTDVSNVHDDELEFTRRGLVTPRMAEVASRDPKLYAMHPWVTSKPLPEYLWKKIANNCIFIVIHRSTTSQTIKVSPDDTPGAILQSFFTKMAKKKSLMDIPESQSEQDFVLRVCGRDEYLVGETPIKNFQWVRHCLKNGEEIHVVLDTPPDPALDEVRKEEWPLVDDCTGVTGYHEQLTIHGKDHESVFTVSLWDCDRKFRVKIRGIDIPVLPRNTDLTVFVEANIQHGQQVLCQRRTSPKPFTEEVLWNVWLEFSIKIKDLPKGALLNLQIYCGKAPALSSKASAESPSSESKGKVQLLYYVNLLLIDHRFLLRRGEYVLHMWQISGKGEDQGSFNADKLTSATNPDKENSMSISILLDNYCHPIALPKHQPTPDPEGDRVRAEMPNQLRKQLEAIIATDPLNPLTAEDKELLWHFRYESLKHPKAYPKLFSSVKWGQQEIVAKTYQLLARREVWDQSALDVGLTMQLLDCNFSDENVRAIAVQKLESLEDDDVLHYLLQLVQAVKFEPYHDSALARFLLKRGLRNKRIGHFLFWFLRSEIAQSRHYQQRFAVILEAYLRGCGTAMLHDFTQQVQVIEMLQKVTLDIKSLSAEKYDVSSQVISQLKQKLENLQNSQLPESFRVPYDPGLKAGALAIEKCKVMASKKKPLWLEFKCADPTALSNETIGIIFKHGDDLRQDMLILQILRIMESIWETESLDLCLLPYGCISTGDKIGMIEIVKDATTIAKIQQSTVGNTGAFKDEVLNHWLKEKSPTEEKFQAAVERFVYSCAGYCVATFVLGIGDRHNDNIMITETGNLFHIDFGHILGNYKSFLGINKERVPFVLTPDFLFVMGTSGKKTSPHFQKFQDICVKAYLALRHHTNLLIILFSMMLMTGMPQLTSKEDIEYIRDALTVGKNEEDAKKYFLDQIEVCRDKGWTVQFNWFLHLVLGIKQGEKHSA

Compound	IC50 (PI3K-alpha) [µM]	IC50 (PI3K-gamma) [µM]	IC50 (human TOR) [µM]	melting point	also measured
COc1cc(O)c2c(c1)O/C(=C\c1c(-c3ccccc3)n(C)c3ccccc13)C2=O [Example 421, (2Z)-4-hydroxy-6-methoxy-2-[(1-methyl-2-phenyl-1H-indol-3-yl)methylene]benzofuran-3(2H)-one]	> 10	> 10	> 20	221 to 223 °C	–
COc1cc(OC)c2c(c1)O/C(=C\c1c(-c3ccccc3)n(C)c3ccccc13)C2=O [Example 409, (2Z)-4,6-dimethoxy-2-[(1-methyl-2-phenyl-1H-indol-3-yl)methylene]benzofuran-3(2H)-one]	> 10	1.99	> 20	257 to 258 °C	–
Oc1cccc(-c2nc(N3CCOCC3)c3oc4ncccc4c3n2)c1 [PI103, 3-(4-(4-morpholinyl)pyrido[3′,2′:4,5]furo[3,2-d]pyrimidin-2-yl)phenol]	–	–	–	–	activity in human tumor xenograft models ([1]; I.P. dosing in mice, U87MG, PC3, MDA-MB-468, MDA-MB-435, HCT 116, SKOV3, IGROV-1): demonstrated activity
CO[C@H]1C[C@@H]2CC[C@@H](C)[C@@](O)(O2)C(=O)C(=O)N2CCCC[C@H]2C(=O)O[C@H]([C@H](C)C[C@@H]2CC[C@@H](OC(=O)C(C)(CO)CO)[C@H](OC)C2)CC(=O)[C@H](C)/C=C(\C)[C@@H](O)[C@@H](OC)C(=O)[C@H](C)C[C@H](C)/C=C/C=C/C=C/1C [Torisel]	–	–	–	–	activity in NOS/SCID xenograft mouse model of acute lymphoblastic leukemia [2]: active
COc1ccc(-c2cccc3c2c(/C=C2\Oc4cc(O)cc(O)c4C2=O)cn3C)cc1 [Example 376, (2Z)-4,6-dihydroxy-2-{[4-(4-methoxyphenyl)-1-methyl-1H-indol-3-yl]methylene}benzofuran-3(2H)-one]	2.08	3.8	0.128	289 to 291 °C (dec.)	–
Cn1c(=O)n(-c2ccc(C(C)(C)C#N)cc2)c2c3cc(-c4cnc5ccccc5c4)ccc3ncc21 [NVP-BEZ-235, 2-methyl-2-(4-(3-methyl-2-oxo-8-(quinolin-3-yl)-2,3-dihydro-1H-imidazo[4,5-c]quinolin-1-yl)phenyl)propanenitrile]	–	–	–	–	activity in human tumor xenograft models ([1]; prostrate (PC-3) and glioblastoma (U-87)): demonstrated activity
FC(F)c1nc2ccccc2n1-c1nc(N2CCOCC2)nc(N2CCOCC2)n1 [ZSTK474, 2-(2-difluoromethylbenzoimidazol-1-yl)-4,6-dimorpholino-1,3,5-triazine]	–	–	–	–	IC50 (mTOR): > 10 µM; tumor growth in mouse human xenograft cancer models ([1]; chronic oral administration, 400 mg/kg, A549, PC-3, WiDr): completely inhibited growth
